A value given as a limit tells only on which side of the number the result lay.

The test relates to FaDu. Kind of test: Cytotoxicity against human FADU cells assessed as reduction in cell viability after 72 hrs by MTT assay. The test is classed as functional. As to conditions: read-out: LC50 (the source's name). Background: Tetrazolium assays rely on reduction of a dye to a coloured formazan, in cell work by metabolically active cells.
As to `COCCn1cc(C(=O)C(=O)Nc2ccnc(OC)c2)c2ccccc21`, the CC50 amounted to 235 nM.

With `COCCn1cc(C(=O)C(=O)Nc2ccncc2)c2ccccc21`, the CC50 is over 10000 nM.

Take `CC(C)n1cc(C(=O)C(=O)Nc2cccnc2)c2ccccc21`: the CC50 is over 10000 nM.

`COCCn1cc(C(=O)C(=O)Nc2cnc(OC)nc2)c2ccccc21`: the CC50 is 55 nM.

Regarding `COc1ccc(NC(=O)C(=O)c2cn(C(C)C)c3cccc(OC)c23)cn1`, the CC50 amounted to 7780 nM.

For the molecule `CCC(C)n1cc(C(=O)C(=O)Nc2ccc(OC)nc2)c2ccccc21` (centres undefined), the CC50 stood at 68 nM.

As to `CC(C)n1cc(C(=O)C(=O)Nc2ccncc2)c2ccccc21`, the CC50 is over 10000 nM.

`CCc1cc(C(=O)C(=O)Nc2ccc(OC)nc2)c2ccccn12`: the CC50 amounted to 110 nM.

Take `COCCn1cc(C(=O)C(=O)Nc2ccc(OC)nc2)c2cc(Cl)ccc21`: the CC50 was over 10000 nM.

For `COc1ccc(NC(=O)C(=O)c2cn(C(C)C)c3cccc(Cl)c23)cn1`, the CC50 amounted to 2130 nM.

Take `COCCn1cc(C(=O)C(=O)Nc2ccc(OC)nc2)c2cc(OC)ccc21`: the CC50 is over 10000 nM.

For the molecule `COc1ccc(NC(=O)C(=O)c2cn(CC(C)C)c3ccccc23)cn1`, the CC50 was 317 nM.

As for `CCCCn1cc(C(=O)C(=O)Nc2ccc(OC)nc2)c2ccccc21`, the CC50 was determined as 18 nM.

For the molecule `CC(C)n1cc(C(=O)C(=O)Nc2ccc(OC(F)(F)F)cc2)c2ccccc21`, the CC50 amounted to 8930 nM.

On to `COc1nsc(NC(=O)C(=O)c2cn(C(C)C)c3ccccc23)n1`, for which the CC50 was 10400 nM.

In the case of `COc1ccc(NC(=O)C(=O)c2cn(C(C)C)c3cc(Cl)ccc23)cn1`, the CC50 was determined as 1770 nM.

Take `CCOC(=O)COc1ccc(NC(=O)C(=O)c2cn(CCOC)c3ccccc23)cn1`: the CC50 is over 10000 nM.

With `COc1ccc(NC(=O)C(=O)c2cn(C(C)C)c3ccccc23)cc1OC`, the CC50 is over 10000 nM.

Regarding `COCCc1cc(C(=O)C(=O)Nc2ccc(OC(F)(F)F)cc2)c2ccccn12`, the CC50 came out at 758 nM.

With `COc1ccc(NC(=O)C(=O)c2cn(C(C)C)c3ccccc23)cc1`, the CC50 is 181 nM.

In the case of `COc1ccc(NC(=O)C(=O)c2cn(C(C)C)c3ccc(Cl)cc23)cc1`, the CC50 is over 10000 nM.

In the case of `COc1ccc2c(C(=O)C(=O)Nc3ccc(OC)nc3)cn(C(C)C)c2c1`, the CC50 is over 10000 nM.

As for `CC(C)n1cc(C(=O)C(=O)Nc2ccc(C(F)(F)F)nc2)c2ccccc21`, the CC50 was over 10000 nM.

Turning to `COc1ccc(NC(=O)C(=O)c2cn(CC(C)(C)OC)c3ccccc23)cn1`, the CC50 is over 10000 nM.

Take `COc1ccc(NC(=O)C(=O)c2cn(C(C)C)c3cccnc23)cn1`: the CC50 was over 10000 nM.

`CCn1cc(C(=O)C(=O)Nc2ccncc2)c2ccccc21`: the CC50 is over 10000 nM.

Take `COCCn1cc(C(=O)C(=O)Nc2ccc(C(F)(F)F)nc2)c2ccccc21`: the CC50 was over 10000 nM.

For `COc1ccc(NC(=O)C(=O)c2cn(C3CCCC3)c3ccccc23)cn1`, the CC50 came to 370 nM.

Turning to `COC(=O)CCn1cc(C(=O)C(=O)Nc2ccc(OC)nc2)c2ccccc21`, the CC50 worked out at 168 nM.

On to `COc1ccc(NC(=O)C(=O)c2cn(CC3CCO3)c3ccccc23)cn1` (centres undefined), for which the CC50 was found to be 686 nM.

Consider `COc1ccc(NC(=O)C(=O)c2cn(C(C)C)c3c(Cl)cccc23)cn1`, for which the CC50 stood at 10200 nM.

Consider `COCCn1cc(C(=O)C(=O)Nc2ccc(OC)cc2)c2ccccc21`, for which the CC50 stood at 59 nM.

As to `CCOc1ccc(NC(=O)C(=O)c2cn(C(C)C)c3ccccc23)cn1`, the CC50 was determined as 175 nM.

For `COc1ccc(NC(=O)C(=O)c2cn(C(C)C)c3c(OC)cccc23)cn1`, the CC50 was over 10000 nM.

For the molecule `COc1nc(NC(=O)C(=O)c2cn(C(C)C)c3ccccc23)ns1`, the CC50 was over 10000 nM.

Turning to `COCCn1cc(C(=O)C(=O)Nc2ccc(OC(C)(C)C)nc2)c2ccccc21`, the CC50 turned out to be 858 nM.

In the case of `COc1ccc(NC(=O)C(=O)c2cn(C(C)C)c3ccc(Cl)cc23)cn1`, the CC50 is over 10000 nM.

With `COc1cc(NC(=O)C(=O)c2cn(C(C)C)c3ccccc23)ccn1`, the CC50 is 1750 nM.

As to `COc1ccc(NC(=O)C(=O)c2cn(C(C)C)c3cnccc23)cn1`, the CC50 is over 10000 nM.

The record behind these values is ChEMBL document CHEMBL3745658, “An Orally Bioavailable, Indole-3-glyoxylamide Based Series of Tubulin Polymerization Inhibitors Showing Tumor Growth Inhibition in a Mouse Xenograft Model of Head and Neck Cancer” (J Med Chem, 2015).
